Key:
Trap-1 = target: T1, Trap-1 (Homo sapiens, UniProt Q12931); assay: biochemical
T1 sequence (Q12931 60-704): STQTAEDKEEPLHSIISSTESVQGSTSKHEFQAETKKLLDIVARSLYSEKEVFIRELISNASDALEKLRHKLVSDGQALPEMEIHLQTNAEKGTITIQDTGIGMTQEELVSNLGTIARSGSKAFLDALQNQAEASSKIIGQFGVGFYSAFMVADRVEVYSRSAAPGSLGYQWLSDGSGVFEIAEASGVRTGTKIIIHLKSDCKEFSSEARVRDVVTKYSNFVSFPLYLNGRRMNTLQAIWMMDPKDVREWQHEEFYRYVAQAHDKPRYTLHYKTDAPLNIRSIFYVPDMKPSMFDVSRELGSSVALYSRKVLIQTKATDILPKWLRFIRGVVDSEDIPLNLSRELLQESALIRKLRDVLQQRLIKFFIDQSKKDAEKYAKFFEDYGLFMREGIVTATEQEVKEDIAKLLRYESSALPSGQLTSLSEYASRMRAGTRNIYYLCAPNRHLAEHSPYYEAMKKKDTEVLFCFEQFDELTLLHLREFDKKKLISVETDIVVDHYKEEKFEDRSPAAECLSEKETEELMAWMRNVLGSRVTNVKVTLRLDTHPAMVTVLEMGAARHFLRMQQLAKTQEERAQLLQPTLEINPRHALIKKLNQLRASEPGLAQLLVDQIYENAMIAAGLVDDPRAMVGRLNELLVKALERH

Hsp90β = Hsp90β (Homo sapiens, UniProt P08238)
Hsp90β, sequence (P08238 whole entry): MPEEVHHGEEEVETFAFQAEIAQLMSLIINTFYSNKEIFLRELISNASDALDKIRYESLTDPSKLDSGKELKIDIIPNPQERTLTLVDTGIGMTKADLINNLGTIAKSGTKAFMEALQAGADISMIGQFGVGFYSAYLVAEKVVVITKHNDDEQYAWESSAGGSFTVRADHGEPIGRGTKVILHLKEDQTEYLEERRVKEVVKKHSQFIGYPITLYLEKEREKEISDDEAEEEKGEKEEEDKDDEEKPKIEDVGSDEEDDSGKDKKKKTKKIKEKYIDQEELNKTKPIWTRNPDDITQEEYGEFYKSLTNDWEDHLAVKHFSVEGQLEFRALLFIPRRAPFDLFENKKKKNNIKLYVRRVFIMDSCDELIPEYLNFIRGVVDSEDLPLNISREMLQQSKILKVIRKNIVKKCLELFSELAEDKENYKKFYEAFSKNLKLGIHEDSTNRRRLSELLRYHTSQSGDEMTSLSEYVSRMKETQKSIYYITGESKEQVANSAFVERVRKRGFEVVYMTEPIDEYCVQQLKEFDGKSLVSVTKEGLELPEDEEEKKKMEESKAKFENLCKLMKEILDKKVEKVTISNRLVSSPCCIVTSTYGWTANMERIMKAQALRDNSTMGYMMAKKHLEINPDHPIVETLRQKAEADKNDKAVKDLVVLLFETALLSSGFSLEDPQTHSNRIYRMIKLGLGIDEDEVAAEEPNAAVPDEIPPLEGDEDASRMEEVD

Hsp90α = Hsp90α (Homo sapiens, UniProt P07900); assay: biochemical; conditions: FP competition, 6 nM Cy3B-GM, 10 nM protein, 4° C. for 24 h
Grp94 = Grp94 (Canis lupus familiaris, UniProt P41148); conditions: read-out: Grp94; FP competition, 6 nM Cy3B-GM, 10 nM protein, 4° C. for 24 h
Grp94, sequence (P41148 with tags, fused parts or gaps DELINS287-327GGGG): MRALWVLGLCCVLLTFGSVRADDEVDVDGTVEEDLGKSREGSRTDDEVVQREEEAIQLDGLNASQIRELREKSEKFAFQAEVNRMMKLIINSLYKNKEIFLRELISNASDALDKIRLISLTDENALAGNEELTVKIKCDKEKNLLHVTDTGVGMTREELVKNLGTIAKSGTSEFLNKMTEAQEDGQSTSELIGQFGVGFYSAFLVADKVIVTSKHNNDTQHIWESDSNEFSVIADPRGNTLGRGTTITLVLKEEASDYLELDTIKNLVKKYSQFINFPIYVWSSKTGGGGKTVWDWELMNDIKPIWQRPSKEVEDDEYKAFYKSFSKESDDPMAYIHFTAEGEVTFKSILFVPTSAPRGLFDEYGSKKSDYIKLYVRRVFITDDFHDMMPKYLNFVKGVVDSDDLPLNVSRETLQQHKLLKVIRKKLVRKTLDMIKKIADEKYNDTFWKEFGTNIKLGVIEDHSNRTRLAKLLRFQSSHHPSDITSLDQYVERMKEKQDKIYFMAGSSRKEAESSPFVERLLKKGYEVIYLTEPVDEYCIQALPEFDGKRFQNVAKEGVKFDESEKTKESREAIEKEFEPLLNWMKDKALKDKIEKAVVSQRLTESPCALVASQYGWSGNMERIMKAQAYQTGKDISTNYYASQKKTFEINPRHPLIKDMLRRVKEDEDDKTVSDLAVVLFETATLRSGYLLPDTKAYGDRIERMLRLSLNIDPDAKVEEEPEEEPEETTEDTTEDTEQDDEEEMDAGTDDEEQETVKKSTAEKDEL

Row | SMILES | IC50 (Trap-1) | IC50 (Hsp90β) | IC50 (Hsp90α) | IC50 (Grp94)
1 | C#CCCCn1c(Sc2cc(Cl)c(Cl)c(Cl)c2)nc2c(N)ncnc21 [PDP-121] | 2.2 ± 0.67 µM | > 100 µM | > 100 µM | 1.66 ± 0.48 µM
2 | CC(Br)CCCn1c(Sc2cc(Cl)cc(Cl)c2)nc2c(N)ncnc21 (stereo not shown) [PDP-99A, 9-(4-Bromopentyl)-8-((3,5-dichlorophenyl)thio)-9H-purin-6-amine] | > 100 µM | > 100 µM | > 100 µM | 1.52 ± 0.03 µM
3 | Nc1ncn(CCCCCC(F)(F)F)c2nc(Sc3cc(Cl)cc(Cl)c3)nc1-2 [PDP-101A, 8-((3,5-Dichlorophenyl)thio)-3-(6,6,6-trifluorohexyl)-3H-purin-6-amine] | > 100 µM | > 100 µM | > 100 µM | > 100 µM
4 | N#CCCCn1cnc(N)c2nc(Sc3cc(Cl)cc(Cl)c3)nc1-2 [PDP-93B, 4-(6-Amino-8-((3,5-dichlorophenyl)thio)-3H-purin-3-yl)butanenitrile] | > 100 µM | > 100 µM | > 100 µM | > 100 µM
5 | Nc1ncnc2c1nc(Sc1cc(Cl)cc(Cl)c1)n2CCCCCC(F)(F)F [PDP-101B, 8-((3,5-Dichlorophenyl)thio)-9-(6,6,6-trifluorohexyl)-9H-purin-6-amine] | > 100 µM | > 100 µM | > 100 µM | 1.65 ± 0.31 µM
6 | Nc1ncnc2c1nc(Sc1cc(Cl)cc(Cl)c1)n2Cc1ccccc1 [PDP-107A, 9-Benzyl-8-((3,5-dichlorophenyl)thio)-9H-purin-6-amine] | > 50 µM |  | > 100 µM | > 5 µM
7 | Nc1ncn(Cc2ccccc2)c2nc(Sc3cc(Cl)cc(Cl)c3)nc1-2 [PDP-107B, 3-Benzyl-8-((3,5-dichlorophenyl)thio)-3H-purin-6-amine] | > 100 µM | > 100 µM | > 100 µM | 11.6 µM
8 | C#CCCCn1c(Sc2ccc(C(F)(F)F)cc2C(F)(F)F)nc2c(N)ncnc21 [PDP-122] | 7.64 ± 2.15 µM | > 100 µM | > 100 µM | 0.5 ± 0.39 µM
9 | C#CCCCn1c(Sc2cc(Br)cc(I)c2)nc2c(N)ncnc21 [PDP-108A] | > 50 µM | > 100 µM | > 50 µM | 0.133 µM
10 | C#CCCCCn1c(Sc2cc(Cl)cc(Cl)c2)nc2c(N)ncnc21 [PDP-112A, 8-((3,5-Dichlorophenyl)thio)-9-(hex-5-yn-1-yl)-9H-purin-6-amine] | > 100 µM | > 100 µM | > 100 µM | 0.65 ± 0.05 µM
11 | Nc1ncnc2c1nc(Sc1cc(Cl)cc(Cl)c1)n2CCCC(F)(F)F [PDP-I-15-N9, 8-((3,5-Dichlorophenyl)thio)-9-(4,4,4-trifluorobutyl)-9H-purin-6-amine] | > 50 µM |  |  | 0.46 ± 0.04 µM
12 | CC(Br)CCCn1cnc(N)c2nc(Sc3cc(Cl)cc(Cl)c3)nc1-2 (stereo not shown) [PDP-99B, 3-(4-Bromopentyl)-8-((3,5-dichlorophenyl)thio)-3H-purin-6-amine] | > 100 µM |  | > 100 µM | > 10 µM
13 | C#CCCCn1c(Sc2cccc(Cl)c2Cl)nc2c(N)ncnc21 [PDP-119A] | > 100 µM | > 100 µM | > 100 µM | 1.96 µM
14 | Nc1ncn(CCC(F)(F)F)c2nc(Sc3cc(Cl)cc(Cl)c3)nc1-2 [PDP-I-13-N3, 8-((3,5-Dichlorophenyl)thio)-3-(3,3,3-trifluoropropyl)-3H-purin-6-amine] | > 100 µM | > 100 µM | > 50 µM | 12.8 ± 0.86 µM
15 | C#CCCCn1c(Sc2ccc(Cl)c(Cl)c2Cl)nc2c(N)ncnc21 [PDP-126A] | 4.03 ± 0.89 µM | 18.3 ± 1.29 µM | 15.7 ± 0.35 µM | 0.27 ± 0.14 µM
16 | C#CCCCn1cnc(N)c2nc(Sc3ccc(OC)cc3OC)nc1-2 [PU-H44] | > 100 µM | > 100 µM | > 100 µM | 46.8 µM
17 | C#CCCCn1c(Sc2cc(Cl)cc3c(Cl)ccnc23)nc2c(N)ncnc21 [PDP-I-79-N9] | > 100 µM | > 100 µM | > 100 µM | 2.78 ± 0.21 µM
18 | CC(C)(CO)NCCn1c(Sc2ccc(Cl)cc2Cl)nc2c(N)ncnc21 [HJP-V-84, 2-((2-(6-Amino-8-((2,4-dichlorophenyl)thio)-9H-purin-9-yl)ethyl)amino)-2-methylpropan-1-ol] | 4.4 µM |  | 28.9 µM | 1.9 µM
19 | C#CCCCn1c(Sc2ccc(Br)cc2Cl)nc2c(N)ncnc21 [PDP-I-61-N9] | 2.62 ± 0.28 µM | > 50 µM |  | 0.28 ± 0.06 µM

Reference: US12600725B2 (Memorial Sloan-Kettering Cancer Center, priority 2013, dated 2026)
